In this assay the target is T1, hNav1.7 channels (Homo sapiens, UniProt Q15858).
T1 construct: host or cells: HEK293
Briefly: hNav1.7 channel in vitro patch-clamp assay. The following applies: stable HEK293 cell line expressing hNav1.7; for IC50: whole cell patch-clamp (QPatch HTX and/or conventional), room temperature, voltage protocol not given. The format is cell-based. The protocol: hNav1.7 Channel In Vitro Patch-Clamp Assay
Cells: Sable HEK293 (human embryonic kidney) cell line expressing hNav1.7 channels was used in the assay. The cell line was obtained from Millipore (Millipore Corporation, MA).
Patch-clamp recordings: The recordings were performed on QPatch HTX (Sophion Bioscience, Denmark) and/or conventional patch-clamp (Axon Multiclamp 700B systems, Molecular Devices, CA) platforms at room temperature, using whole cell patch-clamp techniques. The composition of extracellular solution was (in mM): HEPES 5, NaCl 40, KCl 3, CaCl2 1, MgCl2 1, Choline Chloride 100. Adjust pH to 7.2 with 1N NaOH, osmolarity to 300-310 mOsm with sucrose. The composition of intracellular solution was (in mM): HEPES 10, NaCl 10, Na2ATP 1, MgCl2 2, KF 135, EGTA 10. Adjust pH to 7.2 with 1N NaOH, osmolarity to 290-300 mOsm with sucrose.
For conventional patch-clamp, 35 mm culture dishes containing hNav1.7 cells were placed on the stage of an inverted microscope and continuously perfused with extracellular solution from a perfusion system (Biologic Rapid solution changer, RSC-160, ˜1 ml/min). […] The recordings were controlled by pCLAMP10 software. Test compounds were dissolved in 100% DMSO to make stock solutions for each test concentration, and then diluted into extracellular solution to achieve final concentration for testing. Final DMSO concentration was less than 0.3%. Two voltage protocols were used in hNav1.7 assay: for non-inactivated protocol, the sodium currents were elicited by a 2 ms pulse to −10 mV from a holding potential of −110 mV. For inactivated protocol, the holding potential was set at V1/2. The voltage was firstly stepped to −110 mV for 50 ms, then to −10 mV for 2 ms and then stepped back to holding potential. In both protocols the voltage command was given in every 10 s. Compound effect (% inhibition) was determined by difference in current amplitude before and after the application of test compounds. IC50 values were determined from concentration-response curves that were obtained with Hill fitting.
For QPatch HTX assay, hNav1.7 cells grown to 50%-80% confluence were rinsed with DPBS and dissociated with Tryple (Invitrogen, 12605-010). The dissociated cells were then mixed with extracellular solution. After centrifuge, the cells were resuspended in extracellular solution and used in the QPatch experiment. The whole-cell protocols, voltage protocols and application protocols were established with QPatch Assay Software 3.4 (Sophion Bioscience, Denmark). Only the inactivated protocol was used in the QPatch assay.

T1 sequence (Q15858 whole entry): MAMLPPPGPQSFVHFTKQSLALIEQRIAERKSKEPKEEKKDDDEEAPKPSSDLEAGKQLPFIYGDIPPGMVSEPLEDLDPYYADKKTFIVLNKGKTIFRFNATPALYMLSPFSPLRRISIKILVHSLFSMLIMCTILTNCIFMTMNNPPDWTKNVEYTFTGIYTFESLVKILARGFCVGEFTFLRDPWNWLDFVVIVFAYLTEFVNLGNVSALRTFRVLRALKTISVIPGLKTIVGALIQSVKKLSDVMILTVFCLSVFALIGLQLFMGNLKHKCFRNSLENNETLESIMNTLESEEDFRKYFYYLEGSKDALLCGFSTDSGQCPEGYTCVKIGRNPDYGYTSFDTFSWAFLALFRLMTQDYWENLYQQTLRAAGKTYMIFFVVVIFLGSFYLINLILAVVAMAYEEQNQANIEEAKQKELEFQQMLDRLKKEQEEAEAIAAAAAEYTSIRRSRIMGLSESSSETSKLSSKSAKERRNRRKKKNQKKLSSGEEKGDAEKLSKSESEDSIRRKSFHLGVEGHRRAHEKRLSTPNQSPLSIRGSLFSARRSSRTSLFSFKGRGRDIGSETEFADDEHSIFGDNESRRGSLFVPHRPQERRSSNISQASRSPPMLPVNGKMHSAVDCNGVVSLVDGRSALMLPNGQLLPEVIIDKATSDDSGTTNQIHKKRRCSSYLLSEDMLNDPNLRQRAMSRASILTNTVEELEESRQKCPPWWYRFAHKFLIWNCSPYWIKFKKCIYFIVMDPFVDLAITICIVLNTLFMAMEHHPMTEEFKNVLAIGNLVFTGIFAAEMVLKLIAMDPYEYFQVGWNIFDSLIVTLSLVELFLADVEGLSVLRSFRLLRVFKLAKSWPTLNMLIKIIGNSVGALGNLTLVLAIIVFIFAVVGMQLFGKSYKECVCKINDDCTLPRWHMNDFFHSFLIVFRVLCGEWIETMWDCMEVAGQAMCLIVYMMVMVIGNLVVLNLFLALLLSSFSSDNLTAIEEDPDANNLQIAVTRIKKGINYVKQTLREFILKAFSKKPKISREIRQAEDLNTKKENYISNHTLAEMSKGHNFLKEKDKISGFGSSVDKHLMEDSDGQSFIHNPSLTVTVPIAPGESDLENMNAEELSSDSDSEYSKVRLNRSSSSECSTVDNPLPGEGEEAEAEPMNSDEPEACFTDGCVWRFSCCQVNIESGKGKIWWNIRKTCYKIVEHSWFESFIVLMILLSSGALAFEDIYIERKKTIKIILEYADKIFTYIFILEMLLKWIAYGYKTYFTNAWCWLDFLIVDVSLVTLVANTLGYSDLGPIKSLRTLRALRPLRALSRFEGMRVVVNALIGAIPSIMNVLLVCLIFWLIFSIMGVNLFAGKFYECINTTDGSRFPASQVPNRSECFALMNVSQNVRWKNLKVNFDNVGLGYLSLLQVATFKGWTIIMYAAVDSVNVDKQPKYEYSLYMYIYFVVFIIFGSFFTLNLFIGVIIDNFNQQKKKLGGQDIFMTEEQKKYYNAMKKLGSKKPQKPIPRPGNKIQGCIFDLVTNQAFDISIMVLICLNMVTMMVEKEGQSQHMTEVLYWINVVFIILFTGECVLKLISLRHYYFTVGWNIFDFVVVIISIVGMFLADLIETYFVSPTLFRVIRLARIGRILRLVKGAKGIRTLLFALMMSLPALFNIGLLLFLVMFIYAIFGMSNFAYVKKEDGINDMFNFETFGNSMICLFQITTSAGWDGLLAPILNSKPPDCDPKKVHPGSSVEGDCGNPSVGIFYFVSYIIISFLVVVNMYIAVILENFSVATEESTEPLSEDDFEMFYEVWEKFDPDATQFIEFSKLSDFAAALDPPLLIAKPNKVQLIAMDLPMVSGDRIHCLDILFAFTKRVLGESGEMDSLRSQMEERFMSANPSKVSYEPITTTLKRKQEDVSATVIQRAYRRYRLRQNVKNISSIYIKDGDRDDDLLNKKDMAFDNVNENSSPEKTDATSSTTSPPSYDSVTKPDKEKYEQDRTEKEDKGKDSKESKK

On to `CC(C)COc1c(Cl)cc(N2C(=O)C3(CC3)c3cc4c(NS(C)(=O)=O)noc4cc32)cc1C#N` [Example 32, N-(7′-(3-chloro-5-cyano-4-isobutoxyphenyl)-6′-oxo-6′,7′-dihydrospiro[cyclopropane-1,5′-isoxazolo[4,5-f]indol]-3′-yl)methanesulfonamide], for which half-maximal inhibition (IC50) required 900 nM.

Compound `O=C1N(c2cnc(OC(F)F)c(Cl)c2)c2cc3onc(NS(=O)(=O)C4CC4)c3cc2C12CC2` [Example 30, N-(7′-(5-chloro-6-(difluoromethoxy)pyridin-3-yl)-6′-oxo-6′,7′-dihydrospiro[cyclopropane-1,5′-isoxazolo[4,5-f]indol]-3′-yl)cyclopropanesulfonamide] displayed a concentration for half-maximal inhibition (IC50) of 630 nM.

As for `O=C1N(c2cnc(OCC(F)(F)F)c(Cl)c2)c2cc3onc(NS(=O)(=O)C4CC4)c3cc2C12CC2` [Example 20, N-(7′-(5-chloro-6-(2,2,2-trifluoroethoxyl)pyridin-3-yl)-6′-oxo-6′,7′-dihydrospiro[cyclopropane-1,5′-isoxazolo[4,5-f]indol]-3′-yl)cyclopropanesulfonamide], the half-inhibitory concentration (IC50) was determined as 500 nM.

In turn, `CC(C)COc1ncc(-c2cccc3cc4c(NS(=O)(=O)C5CC5)noc4cc23)cc1Cl` [Example 58, N-(8-(5-chloro-6-isobutoxypyridin-3-yl)naphtho[2,3-d]isoxazol-3-yl)cyclopropanesulfonamide] returned a half-inhibitory concentration (IC50) of 10 nM.

The compound `CC(C)COc1c(F)cc(N2C(=O)C3(CC3)c3cc4c(NS(=O)(=O)C5CC5)noc4cc32)cc1Cl` [Example 33, N-(7′-(3-chloro-5-fluoro-4-isobutoxyphenyl)-6′-oxo-6′,7′-dihydrospiro[cyclopropane-1,5′-isoxazolo[4,5-f]indol]-3′-yl)cyclopropanesulfonamide] showed a half-inhibitory concentration (IC50) of 100 nM.

Regarding `CC(C)COc1ncc(N2C(=O)C3(CCC3)c3cc4c(NS(=O)(=O)C5CC5)noc4cc32)cc1Cl` [Example 37, N-(7′-(5-chloro-6-isobutoxypyridin-3-yl)-6′-oxo-6′,7′-dihydrospiro[cyclobutane-1,5′-isoxazolo[4,5-f]indol]-3′-yl)cyclopropanesulfonamide], the IC50 stood at 40 nM.

For the compound `COc1ncc(N2C(=O)C3(CC3)c3cc4c(NS(=O)(=O)C5CC5)noc4cc32)cc1Cl` [Example 29, N-(7′-(5-chloro-6-methoxypyridin-3-yl)-6′-oxo-6′,7′-dihydrospiro[cyclopropane-1,5′-isoxazolo[4,5-f]indol]-3′-yl)cyclopropanesulfonamide], the IC50 worked out at 800 nM.

Regarding `O=S(=O)(Nc1noc2cc3c(-c4ccc(Cl)c(Cl)c4)nccc3cc12)C1CC1` [Example 52], it took 800 nM to reach half-maximal inhibition (IC50).

Consider `CC(C)COc1ncc(N2C(=O)C3(CCCCC3)c3cc4c(NS(=O)(=O)C5CC5)noc4cc32)cc1Cl` [Example 39, N-(7′-(5-chloro-6-isobutoxypyridin-3-yl)-6′-oxo-6′,7′-dihydrospiro[cyclohexane-1,5′-isoxazolo[4,5-f]indol]-3′-yl)cyclopropanesulfonamide], for which the 50% inhibitory concentration (IC50) was 700 nM.

The compound `CC(C)COc1ncc(N2C(=O)C3(CC3)c3cc4c(NS(N)(=O)=O)noc4cc32)cc1Cl` [Example 8, N-(7′-(5-chloro-6-isobutoxypyridin-3-yl)-6′-oxo-6′,7′-dihydrospiro[cyclopropane-1,5′-isoxazolo[4,5-f]indol]-3′-yl)aminosulfonamide] had an IC50 of 2000 nM.

For the compound `O=C1N(c2cnc(OCC3CC3)c(Cl)c2)c2cc3onc(NS(=O)(=O)C4CC4)c3cc2C12CC2` [Example 28, N-(7′-(5-chloro-6-(cyclopropylmethoxy)pyridin-3-yl)-6′-oxo-6′,7′-dihydrospiro[cyclopropane-1,5′-isoxazolo[4,5-f]indol]-3′-yl)cyclopropanesulfonamide], the IC50 was 200 nM.

In turn, `CC1(COc2ncc(N3C(=O)C4(CC4)c4cc5c(NS(=O)(=O)C6CC6)noc5cc43)cc2Cl)CC1` [Example 16, N-(7′-(5-chloro-6-((1-methylcyclopropyl)methoxy)pyridin-3-yl)-6′-oxo-6′,7′-dihydrospiro[cyclopropane-1,5′-isoxazolo[4,5-f]indol]-3′-yl)cyclopropanesulfonamide] registered a 50% inhibitory concentration (IC50) of 60 nM.

With `CC(C)COc1ncc(N2C(=O)C3(CC3)c3cc4c(NS(C)(=O)=O)noc4cc32)cc1Cl` [Example 1, N-(7′-(5-chloro-6-isobutoxypyridin-3-yl)-6′-oxo-6′,7′-dihydrospiro[cyclopropane-1,5′-isoxazolo[4,5-f]indol]-3′-yl)methanesulfonamide], the half-inhibitory concentration (IC50) amounted to 150 nM.

Take `CS(=O)(=O)Nc1noc2cc3c(cc12)C1(CC1)C(=O)N3c1cnc(OCC2CCOCC2)c(Cl)c1` [Example 12, N-(7′-(5-chloro-6-((tetrahydro-2H-pyran-4-yl)methoxy)pyridin-3-yl)-6′-oxo-6′,7′-dihydrospiro[cyclopropane-1,5′-isoxazolo[4,5-f]indol]-3′-yl)methanesulfonamide]: it took 2000 nM to reach half-maximal inhibition (IC50).

For the compound `Cc1nn(-c2ccc(Cl)c(Cl)c2)c2cc3onc(NS(=O)(=O)C4CC4)c3cc12` [Example 46, N-(7-(3,4-dichlorophenyl)-5-methyl-7H-isoxazolo[4,5-f]indazol-3-yl)cyclopropanesulfonamide], the IC50 came out at 100 nM.

Consider `CC(C)COc1ncc(N2C(=O)C(C)(C)c3cc4c(NS(=O)(=O)C5CC5)noc4cc32)cc1Cl` [Example 36, N-(7-(5-chloro-6-isobutoxypyridin-3-yl)-5,5-dimethyl-6-oxo-6,7-dihydro-5H-isoxazolo[4,5-f]indol-3-yl)cyclopropanesulfonamide], for which half-maximal inhibition (IC50) was put at 70 nM.

Regarding `CC(C)COc1ncc(-n2c(C(F)(F)F)nc3cc4c(NS(=O)(=O)C5CC5)noc4cc32)cc1Cl` [Example 43, N-(7-(5-chloro-6-isobutoxypyridin-3-yl)-6-(trifluoromethyl)-7H-imidazo[4′,5′:4,5]benzo[1,2-d]isoxazol-3-yl)cyclopropanesulfonamide], the midpoint of inhibition, the IC50, lay at 100 nM.

The compound `O=C1N(c2cnc(OCC3CCCC3)c(Cl)c2)c2cc3onc(NS(=O)(=O)C4CC4)c3cc2C12CC2` [Example 27, N-(7′-(5-chloro-6-(cyclopentylmethoxy)pyridin-3-yl)-6′-oxo-6′,7′-dihydrospiro[cyclopropane-1,5′-isoxazolo[4,5-f]indol]-3′-yl)cyclopropanesulfonamide] yielded a half-inhibitory concentration (IC50) of 90 nM.

Turning to `CC(C)COc1ncc(-n2c(=O)n(C)c3cc4c(NS(=O)(=O)C5CC5)noc4cc32)cc1Cl` [Example 35, N-(7-(5-chloro-6-isobutoxypyridin-3-yl)-5-methyl-6-oxo-6,7-dihydro-5H-imidazo[4′,5′:4,5]benzo[1,2-d]isoxazol-3-yl)cyclopropanesulfonamide], inhibition was half-maximal at 100 nM (IC50).

Consider `CC(C)COc1ncc(N2C(=O)C3(CC3)c3cc4c(NS(=O)(=O)N5CCC5)noc4cc32)cc1Cl` [N-(7′-(5-chloro-6-isobutoxypyridin-3-yl)-6′-oxo-6′,7′-dihydrospiro[cyclopropane-1,5′-isoxazolo[4,5-f]indol]-3′-yl)azetidine-1-sulfonamide], for which, under “whole cell patch-clamp”, the “activity in the hNav1.7 patch-clamp assay (in words)” value was “did not show any activity”.

Consider `O=C1N(c2cnc(OC3CC(F)(F)C3)c(Cl)c2)c2cc3onc(NS(=O)(=O)C4CC4)c3cc2C12CC2` [Example 19, N-(7′-(5-chloro-6-(3,3-difluorocyclobutoxyl)pyridin-3-yl)-6′-oxo-6′,7′-dihydrospiro[cyclopropane-1,5′-isoxazolo[4,5-f]indol]-3′-yl)cyclopropanesulfonamide], for which it took 200 nM to reach half-maximal inhibition (IC50).

As usually defined, the IC50 is the concentration that gives 50% inhibition. Higher therefore signals a need for much substance.

The record behind these values is US20150183802A1, “TRICYCLIC SULFONAMIDE DERIVATIVES” (NOVARTIS AG, priority 2013, published 2015).
